SMILES strings stand for the structures.

Data on 36 compounds can be found in patent publication US20210078988A1, “MODULATORS OF INDOLEAMINE 2,3-DIOXYGENASE” (GLAXOSMITHKLINE INTELLECTUAL PROPERTY DEVELOPMENT LIMITED, priority 2017, published 2021).

The target in this test is T1, indoleamine 2, 3-dioxygenase (IDO1) (Homo sapiens, UniProt P14902).
T1 construct: human peripheral blood mononuclear cells (PBMC) (PB003F; host or cells: human PBMC stimulated with IFN-gamma and LPS
Nature of the test: PBMC IDO1 assay (kynurenine detection via mass spectrometry). In kind it is cell-based. The conditions noted are these: human PBMC stimulated with IFN-γ and LPS, 2 days, kynurenine by mass spectrometry; read-out: IDO1 PBMC pIC50 (converted). The method, boiled down: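 Kynurenine output, read by RapidFire mass spectrometry as a ratio to internal standard, reflected IDO1 activity in human PBMCs induced with 100 ng/ml IFN-γ plus 50 ng/ml LPS and dosed with compound (11 points, 3-fold) over 2 days. Cytotoxicity was tracked by CellTiter-Glo; XC50 values came from Hill-slope fits.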

T1 sequence (P14902 whole entry): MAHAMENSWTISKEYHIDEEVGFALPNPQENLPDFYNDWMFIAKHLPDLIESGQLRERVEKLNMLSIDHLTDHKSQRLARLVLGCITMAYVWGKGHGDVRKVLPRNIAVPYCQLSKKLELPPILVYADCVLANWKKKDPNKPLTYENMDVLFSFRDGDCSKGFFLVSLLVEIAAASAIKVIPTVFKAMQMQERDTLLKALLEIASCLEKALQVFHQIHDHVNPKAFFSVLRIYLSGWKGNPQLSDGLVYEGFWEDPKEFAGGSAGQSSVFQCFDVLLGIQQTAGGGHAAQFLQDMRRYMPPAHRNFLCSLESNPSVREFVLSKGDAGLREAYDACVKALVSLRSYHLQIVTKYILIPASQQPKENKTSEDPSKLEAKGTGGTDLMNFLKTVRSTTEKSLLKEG

In the case of `CC(C)(C)OC(=O)N1CCC(CC(NC(=O)c2ccc(F)c(F)c2)c2ccccc2)CC1` (stereo not drawn) [Example 147, tert-butyl 4-(2-(3,4-difluorobenzamido)-2-phenylethyl)piperidine-1-carboxylate], the IC50 is 79.4 nM. In the case of `CC(C)(C)OC(=O)N1CCC(CC(NC(=O)C23CCC(CC2)CC3)c2ccccc2)CC1` (stereo not drawn) [Example 201, tert-butyl 4-(2-(bicyclo[2.2.2]octane-1-carboxamido)-2-phenylethyl)piperidine-1-carboxylate], the IC50 was 316 nM. Under `CC(C)(C)OC(=O)N1CCC(CC(NC(=O)c2ccsc2)c2ccccc2)CC1` (stereo not drawn) [Example 159, tert-butyl 4-(2-phenyl-2-(thiophene-3-carboxamido)ethyl)piperidine-1-carboxylate] stands 100 nM; under `CC(C)(C)OC(=O)N1CCC(C[C@@H](CCNCc2ccccc2)NC(=O)c2ccc(Cl)s2)CC1` [Example 83, (S)-tert-butyl 4-(4-(benzylamino)-2-(5-chlorothiophene-2-carboxamido)butyl)piperidine-1-carboxylate], 15.8 nM; under `CC(C)CC(CC1CCN(C(=O)OC(C)(C)C)CC1)NC(=O)c1ccc(Br)cc1` (stereo not drawn) [Example 27, tert-butyl 4-(2-(4-bromobenzamido)-4-methylpentyl)piperidine-1-carboxylate], 10 nM.

Take `CCCOC(=O)N1CCC(CC(NC(=O)c2ccc(Cl)cc2)c2ccccc2)CC1` (stereo not drawn) [Example 89, propyl 4-(2-(4-chlorobenzamido)-2-phenylethyl)piperidine-1-carboxylate]: the IC50 was 20 nM. In the case of `CC(C)(C)OC(=O)N1CCC(CC(NC(=O)c2ccc(Cl)s2)c2ccccc2)CC1` (stereo not drawn) [Example 3, tert-butyl 4-(2-(5-chlorothiophene-2-carboxamido)-2-phenylethyl)piperidine-1-carboxylate], the IC50 was 10 nM. For `CC(C)Cc1ccc(C(=O)NC(CC2CCN(C(=O)OC(C)(C)C)CC2)c2ccccc2)s1` (stereo not drawn) [Example 227, tert-butyl 4-(2-(5-isobutylthiophene-2-carboxamido)-2-phenylethyl)piperidine-1-carboxylate], the IC50 is 631 nM.

As for `CC(C)OC(=O)N1CCC(C[C@@H](NC(=O)c2ccc(Cl)s2)C2CC2)CC1` [Example 188, (R)-isopropyl 4-(2-(5-chlorothiophene-2-carboxamido)-2-cyclopropylethyl)piperidine-1-carboxylate], the IC50 was 158 nM.

Turning to `CC(C)(C)OC(=O)N1CCC(CC(NC(=O)C2CCCCC2)c2ccccc2)CC1` (stereo not drawn) [Example 190, tert-butyl 4-(2-(cyclohexanecarboxamido)-2-phenylethyl)piperidine-1-carboxylate], the IC50 is 200 nM. As to `CC(C)OC(=O)N1CCC(C[C@H](NC(=O)c2ccc(Cl)cc2)c2ccccc2)CC1` [Example 32, isopropyl (S)-4-(2-(4-chlorobenzamido)-2-phenylethyl)piperidine-1-carboxylate], the IC50 was 10 nM. `O=C(NC(CC1CCN(C(=O)Oc2ccccc2)CC1)c1ccccc1)c1ccc(Cl)cc1` (stereo not drawn) [Example 104, phenyl 4-(2-(4-chlorobenzamido)-2-phenylethyl)piperidine-1-carboxylate]: the IC50 is 25.1 nM. Turning to `CCc1ccc(C(=O)NC(CC2CCN(C(=O)OC(C)(C)C)CC2)c2ccccc2)s1` (stereo not drawn) [Example 1, tert-butyl 4-(2-(5-ethylthiophene-2-carboxamido)-2-phenylethyl)piperidine-1-carboxylate], the IC50 was 7.94 nM. As to `C=CC[C@@H](CC1CCN(C(=O)OC(C)(C)C)CC1)NC(=O)c1ccc(Cl)s1` [Example 155, (S)-tert-butyl 4-(2-(5-chlorothiophene-2-carboxamido)pent-4-en-1-yl)piperidine-1-carboxylate], the IC50 is 79.4 nM.

Regarding `CC(C)(C)OC(=O)N1CCC(CC(NC(=O)c2ccco2)c2ccccc2)CC1` (stereo not drawn) [Example 228, tert-butyl 4-(2-(furan-2-carboxamido)-2-phenylethyl)piperidine-1-carboxylate], the IC50 is 631 nM. As for `CC(C)(C)OC(=O)N1CCC(CC(NC(=O)c2ccc(Cl)s2)c2n[nH]c(=O)o2)CC1` (stereo not drawn) [Example 224, tert-butyl 4-(2-(5-chlorothiophene-2-carboxamido)-2-(5-oxo-4,5-dihydro-1,3,4-oxadiazol-2-yl)ethyl)piperidine-1-carboxylate], the IC50 is 501 nM. Under `Cc1ccc(C(CC2CCN(C(=O)OC(C)(C)C)CC2)NC(=O)c2ccc(F)cc2)cn1` (stereo not drawn) [Example 174, tert-butyl 4-(2-(4-fluorobenzamido)-2-(6-methylpyridin-3-yl)ethyl)piperidine-1-carboxylate] stands 126 nM; under `CC(C)CC(CC1CCN(C(=O)OC(C)(C)C)CC1)NC(=O)c1ccc(Br)s1` (stereo not drawn) [Example 28, tert-butyl 4-(2-(5-bromothiophene-2-carboxamido)-4-methylpentyl)piperidine-1-carboxylate], 7.94 nM.

`CC(C)(C)OC(=O)N1CCC(CC(NC(=O)c2ccc(C#N)c(F)c2)c2ccccc2)CC1` (stereo not drawn) [Example 162, tert-butyl 4-(2-(4-cyano-3-fluorobenzamido)-2-phenylethyl)piperidine-1-carboxylate]: the IC50 is 100 nM.

As to `CCCNc1nnc(C(CC2CCN(C(=O)OC(C)(C)C)CC2)NC(=O)c2ccc(Cl)s2)o1` (stereo not drawn) [Example 171, tert-butyl 4-(2-(5-chlorothiophene-2-carboxamido)-2-(5-(propylamino)-1,3,4-oxadiazol-2-yl)ethyl)piperidine-1-carboxylate], the IC50 is 100 nM. For `COCCN(C)c1nnc(C(CC2CCN(C(=O)OC(C)(C)C)CC2)NC(=O)c2ccc(Cl)s2)o1` (stereo not drawn) [Example 113, tert-butyl 4-(2-(5-chlorothiophene-2-carboxamido)-2-(5-((2-methoxyethyl)(methyl)amino)-1,3,4-oxadiazol-2-yl)ethyl)piperidine-1-carboxylate], the IC50 is 31.6 nM. Take `COc1ccc([C@H](CC2CCN(C(=O)OC(C)C)CC2)NC(=O)c2ccc(Cl)s2)cn1` [Example 21, isopropyl (S)-4-(2-(5-chlorothiophene-2-carboxamido)-2-(6-methoxypyridin-3-yl)ethyl)piperidine-1-carboxylate]: the IC50 is 1.58 nM. With `CC(C)(C)OC(=O)N1CCC(CC(NC(=O)C2CCCC2)c2ccccc2)CC1` (stereo not drawn) [Example 232, tert-butyl 4-(2-(cyclopentanecarboxamido)-2-phenylethyl)piperidine-1-carboxylate] the figure was 794 nM. `CCCC(=O)N1CCC(CC(NC(=O)c2ccc(Cl)cc2)c2ccccc2)CC1` (stereo not drawn) [Example 154, N-(2-(1-butyrylpiperidin-4-yl)-1-phenylethyl)-4-chlorobenzamide]: the IC50 is 79.4 nM. For `C[C@H](CC1CCN(C(=O)Oc2ccccc2)CC1)NC(=O)c1ccc(Cl)s1` [Example 42, phenyl (R)-4-(2-(5-chlorothiophene-2-carboxamido)propyl)piperidine-1-carboxylate], the IC50 is 5.01 nM.

Turning to `COC(=O)N1CCC(C[C@@H](NC(=O)c2ccc(Cl)s2)C2CC2)CC1` [Example 206, (R)-methyl 4-(2-(5-chlorothiophene-2-carboxamido)-2-cyclopropylethyl)piperidine-1-carboxylate], the IC50 was 316 nM.

In the case of `CC(C)(C)OC(=O)N1CCC(CC(NC(=O)c2cccc(Cl)c2)c2ccccc2)CC1` (stereo not drawn) [Example 199, tert-butyl 4-(2-(3-chlorobenzamido)-2-phenylethyl)piperidine-1-carboxylate], the IC50 is 316 nM.

As for `CC#CCOc1ccc(C(=O)NC(CC2CCN(C(=O)OC(C)(C)C)CC2)c2ccccc2)cc1F` (stereo not drawn) [Example 167, tert-butyl 4-(2-(4-(but-2-yn-1-yloxy)-3-fluorobenzamido)-2-phenylethyl)piperidine-1-carboxylate], the IC50 is 100 nM. As to `CC(C)(C)OC(=O)N1CCC(CC(NC(=O)c2ccc(I)c(F)c2)c2ccccc2)CC1` (stereo not drawn) [Example 101, tert-butyl 4-(2-(3-fluoro-4-iodobenzamido)-2-phenylethyl)piperidine-1-carboxylate], the IC50 was 25.1 nM. For the compound `COc1ccc([C@H](CC2CCN(C(=O)OC(C)(C)C)CC2)NC(=O)c2ccc(F)cc2)cn1` [Example 17, tert-butyl (S)-4-(2-(4-fluorobenzamido)-2-(6-methoxypyridin-3-yl)ethyl)piperidine-1-carboxylate], the IC50 is 7.94 nM. In the case of `CC(C)(C)OC(=O)N1CCC(CC(NC(=O)c2ccc(Br)s2)c2ccccc2)CC1` (stereo not drawn) [Example 2, tert-butyl 4-(2-(5-bromothiophene-2-carboxamido)-2-phenylethyl)piperidine-1-carboxylate], the IC50 is 7.94 nM. `CC(C)C(CC1CCN(C(=O)OC(C)(C)C)CC1)NC(=O)c1ccc(Cl)cc1` (stereo not drawn) [Example 88, tert-butyl 4-(2-(4-chlorobenzamido)-3-methylbutyl)piperidine-1-carboxylate]: the IC50 was 20 nM. With `CCc1ccc(C(=O)NC(CC2CCN(C(=O)OC(C)(C)C)CC2)c2ccccc2)cc1` (stereo not drawn) [Example 118, tert-butyl 4-(2-(4-ethylbenzamido)-2-phenylethyl)piperidine-1-carboxylate], the IC50 is 31.6 nM. Under `O=C(NC(CC1CCN(C(=O)OC2CCC2)CC1)c1ccccc1)c1ccc(Cl)cc1` (stereo not drawn) [Example 61, cyclobutyl 4-(2-(4-chlorobenzamido)-2-phenylethyl)piperidine-1-carboxylate] stands 12.6 nM. Consider `COc1ccc([C@H](CC2CCN(C(=O)OC(C)(C)C)CC2)NC(=O)c2ccc(Br)cc2)cn1` [Example 23, tert-butyl (S)-4-(2-(4-bromobenzamido)-2-(6-methoxypyridin-3-yl)ethyl)piperidine-1-carboxylate], for which the IC50 is 3.98 nM.

`CC(C)COC(=O)N1CCC(CC(NC(=O)c2ccc(Cl)cc2)c2ccccc2)CC1` (stereo not drawn) [Example 125, isobutyl 4-(2-(4-chlorobenzamido)-2-phenylethyl)piperidine-1-carboxylate]: the IC50 is 39.8 nM.
